The numbers were not newly measured in US20130243825A1, “COMPOSITIONS AND METHODS FOR THE TREATMENT OF SKIN DISEASES” (priority 2012, published 2013), which cites them from elsewhere.

“Also recorded” adds a separate entry of the source.

The test system of the first data set is vasoconstriction. Conditions: seven potency groups, I ultra high to VII least potent; Ference and Last 2009.
As to `CCC(=O)OCC(=O)[C@@]1(OC(=O)CC)[C@H](C)C[C@H]2[C@H]3[C@H]([C@@H](O)C[C@@]21C)[C@@]1(C)C=CC(=O)C=C1C[C@H]3Cl` [Alclometasone dipropionate 0.05%, Alclometasone dipropionate], the “potency group by strength in standard vasoconstriction assay” value (shortened to “potency group by strength”) is given as “Low (VI)”. On to `CCCCC(=O)O[C@]1(C(=O)CO)[C@@H](C)C[C@H]2[C@@H]3CCC4=CC(=O)C=C[C@]4(C)[C@@]3(F)[C@@H](O)C[C@@]21C` [Betamethasone valerate 0.1%, Betamethasone valerate], for which the “potency group by strength” value is “Medium (IV and V)”. On to `CCC(=O)O[C@]1(C(=O)CCl)[C@@H](C)C[C@H]2[C@@H]3CCC4=CC(=O)C=C[C@]4(C)[C@@]3(F)[C@@H](O)C[C@@]21C` [Clobetasol propionate 0.05%, Clobetasol propionate], for which the “potency group by strength” value is “Ultra high (I)”. Take `CC1(C)O[C@@H]2C[C@H]3[C@@H]4CCC5=CC(=O)C=C[C@]5(C)[C@H]4[C@@H](O)C[C@]3(C)[C@]2(C(=O)CO)O1` [Desonide 0.05%, Desonide]: the “potency group by strength” value is “Low (VI)”. On to `C[C@@H]1C[C@H]2[C@@H]3CCC4=CC(=O)C=C[C@]4(C)[C@@]3(F)[C@@H](O)C[C@]2(C)[C@H]1C(=O)CO` [Desoximetasone 0.05%, Desoximetasone], for which the “potency group by strength” value is “Medium (IV and V)”. Consider `C[C@@H]1C[C@H]2[C@@H]3CCC4=CC(=O)C=C[C@]4(C)[C@@]3(F)[C@@H](O)C[C@]2(C)[C@H]1C(=O)CO` [Desoximetasone 0.25%, Desoximetasone], for which the “potency group by strength” value is on record as “High (II)”.

Turning to `CC1(C)O[C@@H]2C[C@H]3[C@@H]4C[C@H](F)C5=CC(=O)C=C[C@]5(C)[C@@]4(F)[C@@H](O)C[C@]3(C)[C@]2(C(=O)CO)O1` [Fluocinolone acetonide 0.025%, Fluocinolone acetonide], the “potency group by strength” value was “Medium (IV and V)”. For the molecule `CC(=O)OCC(=O)[C@@]12OC(C)(C)O[C@@H]1C[C@H]1[C@@H]3C[C@H](F)C4=CC(=O)C=C[C@]4(C)[C@@]3(F)[C@@H](O)C[C@@]12C` [Fluocinonide 0.1%, Fluocinonide], the “potency group by strength” value was “Ultra high (I)”. For the molecule `CC(=O)OCC(=O)[C@@]12OC(C)(C)O[C@@H]1C[C@H]1[C@@H]3C[C@H](F)C4=CC(=O)C=C[C@]4(C)[C@@]3(F)[C@@H](O)C[C@@]12C` [Fluocinonide 0.05%, Fluocinonide], the “potency group by strength” value is listed as “High (II)”. On to `CCC(=O)O[C@]1(C(=O)SCF)[C@H](C)C[C@H]2[C@@H]3C[C@H](F)C4=CC(=O)C=C[C@]4(C)[C@@]3(F)[C@@H](O)C[C@@]21C` [Fluticasone propionate 0.005%, Fluticasone propionate], for which the “potency group by strength” value was “Medium to high (III)”. On to `CCC(=O)O[C@]1(C(=O)SCF)[C@H](C)C[C@H]2[C@@H]3C[C@H](F)C4=CC(=O)C=C[C@]4(C)[C@@]3(F)[C@@H](O)C[C@@]21C` [Fluticasone propionate 0.05%, Fluticasone propionate], for which the “potency group by strength” value was “Medium (IV and V)”. Turning to `CC1(C)O[C@@H]2C[C@H]3[C@@H]4CCC5=CC(=O)CC[C@]5(C)[C@@]4(F)[C@@H](O)C[C@]3(C)[C@]2(C(=O)CCl)O1` [Halcinonide 0.1%, Halcinonide], the “potency group by strength” value is reported as “High (II)”. Consider `C[C@]12CCC(=O)C=C1CC[C@@H]1[C@@H]2[C@@H](O)C[C@@]2(C)[C@H]1CC[C@]2(O)C(=O)CO` [Hydrocortisone 1%, 2.5%, Hydrocortisone], for which the “potency group by strength” value is recorded as “Least potent (VII)”. As for `CCCC(=O)O[C@]1(C(=O)CO)CC[C@H]2[C@@H]3CCC4=CC(=O)CC[C@]4(C)[C@H]3[C@@H](O)C[C@@]21C` [Hydrocortisone butyrate 0.1%, Hydrocortisone butyrate], the “potency group by strength” value was “Medium (IV and V); also recorded: Low (VI)”. In the case of `CCCC(=O)O[C@]1(C(=O)COC(=O)CC)CC[C@H]2[C@@H]3CCC4=CC(=O)CC[C@]4(C)[C@H]3[C@@H](O)C[C@@]21C` [Hydrocortisone probutate 0.1%, Hydrocortisone probutate], the “potency group by strength” value is “Medium (IV and V)”. On to `CCCCC(=O)O[C@]1(C(=O)CO)CC[C@H]2[C@@H]3CCC4=CC(=O)CC[C@]4(C)[C@H]3[C@@H](O)C[C@@]21C` [Hydrocortisone valerate 0.2%, Hydrocortisone valerate], for which the “potency group by strength” value was “Medium (IV and V)”. For the molecule `C[C@@H]1C[C@H]2[C@@H]3CCC4=CC(=O)C=C[C@]4(C)[C@@]3(Cl)[C@@H](O)C[C@]2(C)[C@@]1(OC(=O)c1ccco1)C(=O)CCl` [Mometasone furoate 0.1%, Mometasone furoate], the “potency group by strength” value is “Medium (IV and V)”. For Augmented betamethasone dipropionate, the “potency group by strength” value is “Ultra high (I); also recorded: High (II)”.

The next data set deals with standardized wounds created by sequential tape stripping. Particulars: applied to a wound for 15 seconds, 24 subjects; Pagnoni et al. 2004.
On to `CC(C)O` [70% isopropyl alcohol, isopropyl alcohol], for which the stinging/burning sensation result was “stung”.
